The record followed here is the NIST ThermoML archive (doi:10.1021/je201299u).

For this data set the following is noted: Liquid, Ebulliometric method (Recirculating still).

SMILES strings stand for the structures. Numbers after ± are expanded uncertainties.

With `C` [methane], the “vapor or sublimation pressure” value runs as follows: (110.01 K) 88.2 ± 1.4 kPa; (112.98 K) 112.74 ± 1.4 kPa; (114.99 K) 132.11 ± 1.4 kPa; (115.07 K) 134.08 ± 1.3 kPa; (117 K) 153.92 ± 1.4 kPa; (118.99 K) 178.11 ± 1.5 kPa. In addition, the “vapor or sublimation pressure” value (120.11 K) was 194.65 ± 1.3 kPa; the “vapor or sublimation pressure” value (120.96 K) turned out to be 204.78 ± 1.5 kPa; the “vapor or sublimation pressure” value (123.01 K) is reported as 235.61 ± 1.6 kPa; the “vapor or sublimation pressure” value (130.15 K) is 374.77 ± 1.4 kPa; the “vapor or sublimation pressure” value (135.09 K) is 496.11 ± 1.4 kPa.
Take `N#N` [nitrogen]: the “vapor or sublimation pressure” value is given as 1466.7 ± 6 kPa (110.01 K); 1735.2 ± 7 kPa (112.98 K); 1936 ± 7.8 kPa (114.99 K); 2153.3 ± 8.7 kPa (117 K); 2385.7 ± 9.6 kPa (118.99 K); 2633.9 ± 11 kPa (120.96 K). For the same compound, the “vapor or sublimation pressure” value (123.01 K) came to 2913 ± 12 kPa.

For orientation: vapor or sublimation pressure means the pressure of vapour in equilibrium with the condensed phase.
